Laboratory results: the supplement of paper PMC11281043

Tests used:
Settings in all cases: exposure: 6-8 hpf to 5 dpf, scored at 6 dpf
Danio rerio embryo/larva [1] = assay: max % larvae with pigmentation defects across tested concentrations; higher = more toxic
Danio rerio embryo/larva [2] = assay: max % larvae with edema across tested concentrations; higher = more toxic; extreme values may be limits of the assay
Danio rerio embryo/larva [3] = assay: max % larvae with tail defects across tested concentrations; higher = more toxic; extreme values may be limits of the assay
Danio rerio embryo/larva [4] = assay: max % larvae with blood pooling across tested concentrations; higher = more toxic; extreme values may be limits of the assay
Danio rerio embryo/larva [5] = assay: max % larvae generally abnormal across tested concentrations; higher = more toxic; extreme values may be limits of the assay
Danio rerio embryo/larva [6] = assay: max % larvae with spinal defects across tested concentrations; higher = more toxic; extreme values may be limits of the assay
Danio rerio embryo/larva [7] = assay: max % larvae with abnormal position across tested concentrations; higher = more toxic; extreme values may be limits of the assay
Danio rerio embryo/larva [8] = assay: max % larvae with craniofacial defects across tested concentrations; higher = more toxic; extreme values may be limits of the assay
Danio rerio embryo/larva [9] = assay: max % larvae with uninflated swim bladder across tested concentrations; higher = more toxic; extreme values may be limits of the assay

SMILES	max % larvae (Danio rerio embryo/larva [1])	max % larvae (Danio rerio embryo/larva [2])	max % larvae (Danio rerio embryo/larva [3])	max % larvae (Danio rerio embryo/larva [4])	max % larvae generally abnormal across tested concentrations (Danio rerio embryo/larva [5])	max % larvae (Danio rerio embryo/larva [6])	max % larvae (Danio rerio embryo/larva [7])	max % larvae (Danio rerio embryo/larva [8])	max % larvae (Danio rerio embryo/larva [9])
FC(F)(F)C(F)(F)C(F)(F)C(F)(F)C(F)(F)C(F)(F)C(F)(F)C(F)(F)CCS [2-(Perfluorooctyl)ethanthiol] (max tested concentration (log10 uM): 1.60206)	0%	8.33%	0%	0%	8.33%	0%	0%	0%	8.33%
C=CC(=O)OCCC(F)(F)C(F)(F)C(F)(F)C(F)(F)C(F)(F)C(F)(F)C(F)(F)C(F)(F)F [2-(Perfluorooctyl)ethyl acrylate] (max tested concentration (log10 uM): 2)	0%	0%	0%	0%	0%	0%	0%	0%	0%
C=C(C)C(=O)OCCC(F)(F)C(F)(F)C(F)(F)C(F)(F)C(F)(F)C(F)(F)C(F)(F)C(F)(F)F [2-(Perfluorooctyl)ethyl methacrylate] (max tested concentration (log10 uM): 2)	0%	0%	0%	0%	0%	0%	0%	0%	0%
FC(F)(F)C(F)(C(F)(F)F)C(F)(F)C(F)(F)CC1CO1 (stereo not given) [3-(Perfluoro-3-methylbutyl)-1,2-propenoxide] (max tested concentration (log10 uM): 1.60206)	0%	0%	0%	0%	0%	0%	0%	0%	0%
O=C(O)C=CC(F)(C(F)(F)F)C(F)(F)F [3-(Perfluoroisopropyl)-2-propenoic acid] (max tested concentration (log10 uM): 2)	0%	16.7%	8.33%	16.7%	16.7%	8.33%	8.33%	16.7%	16.7%
OCCCC(F)(F)C(F)(F)C(F)(F)C(F)(F)C(F)(F)C(F)(F)C(F)(F)C(F)(F)F [3-(Perfluorooctyl)propanol] (max tested concentration (log10 uM): 2)	0%	0%	0%	0%	0%	0%	0%	0%	0%
OCC(F)(F)C(F)(F)C(F)(F)F [3:1 Fluorotelomer alcohol] (max tested concentration (log10 uM): 2)	0%	8.33%	0%	8.33%	8.33%	0%	0%	0%	0%
O=C(O)CCC(F)(C(F)(F)F)C(F)(F)F [4,4-bis(Trifluoromethyl)-4-fluoropropanoic acid] (max tested concentration (log10 uM): 2)	0%	0%	0%	0%	0%	0%	0%	0%	0%
OCCC(F)(F)C(F)(F)C(F)(F)C(F)(F)F [4:2 Fluorotelomer alcohol] (max tested concentration (log10 uM): 2)	0%	4.17%	0%	0%	4.17%	0%	0%	0%	0%
O=S(=O)(O)CCC(F)(F)C(F)(F)C(F)(F)C(F)(F)F [4:2 Fluorotelomer sulfonic acid] (max tested concentration (log10 uM): 2)	0%	0%	0%	0%	0%	0%	0%	0%	0%
O=C(O)C(F)(F)C(F)(F)C(F)F [4H-Perfluorobutanoic acid] (max tested concentration (log10 uM): 2)	0%	0%	0%	0%	0%	0%	0%	0%	0%
O=P(O)(O)OCCC(F)(F)C(F)(F)C(F)(F)C(F)(F)C(F)(F)C(F)(F)F [6:2 Fluorotelomer phosphate monoester] (max tested concentration (log10 uM): 2)	0%	0%	0%	0%	0%	0%	0%	0%	0%
O=S(=O)(O)CCC(F)(F)C(F)(F)C(F)(F)C(F)(F)C(F)(F)C(F)(F)C(F)(F)C(F)(F)F [8:2 Fluorotelomer sulfonic acid] (max tested concentration (log10 uM): 2)	0%	0%	0%	0%	0%	0%	0%	0%	0%
O=C(O)C(F)(F)C(F)(F)C(F)(F)C(F)(F)C(F)(F)C(F)(F)C(F)F [8H-Perfluorooctanoic acid] (max tested concentration (log10 uM): 2)	0%	0%	4.17%	0%	8.33%	0%	0%	0%	16.7%
O=C(O)C(F)(F)C(F)(F)C(F)(F)C(F)(F)C(F)(F)C(F)(F)C(F)(F)C(F)F [9H-Perfluorononanoic acid] (max tested concentration (log10 uM): 2)	0%	10.4%	0%	0%	10.4%	0%	2.08%	0%	16.7%
OCC(F)(F)C(F)(F)C(F)(F)C(F)(F)C(F)(F)C(F)(F)C(F)(F)C(F)(F)C(F)(F)C(F)(F)C(F)(F)F [11:1 Fluorotelomer alcohol] (max tested concentration (log10 uM): 1.30103)	0%	0%	0%	0%	0%	0%	0%	0%	0%
C=C(C)C(=O)OCCC(F)(F)C(F)(F)C(F)(F)C(F)(F)C(F)(C(F)(F)F)C(F)(F)F [(Perfluoro-5-methylhexyl)ethyl 2-methylprop-2-enoate] (max tested concentration (log10 uM): 2)	0%	0%	0%	0%	0%	0%	0%	0%	0%
O=C(CC(=O)C(F)(F)C(F)(F)C(F)(F)F)c1cccs1 [(Perfluorobutyryl)-2-thenoylmethane] (max tested concentration (log10 uM): 0.477121)	0%	8.33%	0%	0%	8.33%	0%	0%	8.33%	16.7%
C=C(C)C(=O)OCC(F)(F)C(F)(F)C(F)(F)C(F)(F)C(F)(F)C(F)(F)C(F)(F)F [(Perfluoroheptyl)methyl methacrylate] (max tested concentration (log10 uM): 1.60206)	0%	0%	0%	0%	0%	0%	0%	0%	0%
CO[Si](C)(CCC(F)(F)C(F)(F)C(F)(F)C(F)(F)C(F)(F)C(F)(F)F)OC [Dimethoxymethyl((perfluorohexyl)ethyl)silane] (max tested concentration (log10 uM): 1.60206)	0%	0%	0%	0%	0%	0%	0%	0%	0%
CCOC(=O)CC(=O)C(F)(F)C(F)(F)F [Ethyl pentafluoropropionyl acetate] (max tested concentration (log10 uM): 2)	0%	0%	0%	0%	0%	0%	0%	0%	0%
FC(F)(F)C(F)(F)C(F)(F)CI [Heptafluorobutyl iodide] (max tested concentration (log10 uM): 2)	0%	0%	0%	0%	0%	0%	0%	0%	0%
OCC(F)(F)C(F)(F)C(F)(F)CO [Hexafluoroamylene glycol] (max tested concentration (log10 uM): 2)	0%	0%	0%	0%	0%	0%	0%	0%	0%
O=C(Cl)C(F)(F)C(F)(F)C(F)(F)C(=O)Cl [Hexafluoroglutaryl chloride] (max tested concentration (log10 uM): 2)	0%	0%	0%	0%	0%	0%	0%	0%	0%
COC(=O)C(F)(F)C(F)(F)OC(F)(C(F)(F)F)C(F)(F)OC(F)=C(F)F (stereo not given) [Methyl perfluoro(3-(1-ethenyloxypropan-2-yloxy)propanoate)] (max tested concentration (log10 uM): 1.60206)	0%	8.33%	0%	0%	8.33%	0%	4.17%	0%	0%
COC(=O)C(F)(F)C(F)(F)C(F)(F)C(F)(F)C(F)(F)F [Methyl perfluorohexanoate] (max tested concentration (log10 uM): 2)	0%	0%	0%	0%	0%	0%	0%	0%	0%
CCN(CCO)S(=O)(=O)C(F)(F)C(F)(F)C(F)(F)C(F)(F)C(F)(F)C(F)(F)C(F)(F)C(F)(F)F [N-Ethyl-N-(2-hydroxyethyl)perfluorooctane sulfonamide] (max tested concentration (log10 uM): 2)	0%	8.33%	0%	0%	8.33%	0%	0%	0%	8.33%
CN(C(=O)C(F)(F)C(F)(F)C(F)(F)F)[Si](C)(C)C [N-Methyl-N-trimethylsilylheptafluorobutyramide] (max tested concentration (log10 uM): 2)	0%	0%	0%	0%	0%	0%	0%	0%	0%
NC(=O)C(F)(F)C(F)(F)C(F)(F)C(F)(F)F [Nonafluoropentanamide] (max tested concentration (log10 uM): 2)	0%	0%	0%	0%	0%	0%	0%	0%	0%
NC(=O)C(F)(F)C(F)(F)C(F)(F)C(F)(F)C(N)=O [Octafluoroadipamide] (max tested concentration (log10 uM): 2)	0%	0%	0%	0%	0%	0%	0%	0%	0%
